# Measured values reported in patent US7071158B2, “Antioxidant enhancement of therapy for hyperproliferative conditions” (Atherogenics, Inc., priority 1997, dated 2006).
# B1: I2: a selective PP1 inhibitor (protein, UniProt P41236 2-205, looked up)
# Protein phosphatase inhibitor …: AASTASHRPIKGILKNKTSTTSSMVASAEQPRGNVDEELSKKSQKWDEMNILATYHPADKDYGLMKIDEPSTPYHSMMGDDEDACSDTEATEAMAPDILARKLAAAEGLEPKYRIQEQESSGEEDSDLSPEEREKKRQFEMKRKLHYNEGLNIKLARQLISKDLHDDDEDEEMLETADGESMNTEESNQGSTPSDQQQNKLRSS
# Key:
# [1] = tested on: HCT 116 CRC tumor xenografts; test: HCT 116 tumor xenografts in athymic mice; format: in vivo; conditions: for tumor volume compared to saline-treated controls: single agents, 6 weeks
# Procedure: HCT 116 CRC cells were injected subcutaneously between the scapula of nu/nu mice. Once tumors reached approximately 150 mm^3, the animals either received weekly i.p. injections of pyrrolidinedithiocarbamate (70 μM) or vitamin E (3 MM), 5-FU (40 mg/kg) or saline, or both an antioxidant and 5-FU. Tumor volume was calculated weekly.
# (§5) Male athymic Balb/c nu/nu mice were obtained from the Harlan Sprague-Dawley Company at 4–6 weeks of age and were quarantined for at least 2 weeks before the study. […] HCT 116 and HCT 15 CRC cell lines were grown in DMEM supplemented with 10% FBS as described above. Cells were harvested through two consecutive trypsinizations, centrifuged at 300 g for 5 minutes, washed twice, and resuspended in sterile phosphate buffered saline. One ×10^6 cells in 0.2 ml were injected subcutaneously between the scapula of 7- to 10-week-old male nude mice.
# (§6) Tumor volumes were estimated weekly by measuring the maximal length, width, and height. Once tumors reached a mean size of 120 to 150 mm^3, animals received either weekly i.p. injections of pyrrolidinedithiocarbamate (70 μM) or vitamin E (3 mM), 5-FU (40 mg/kg) or saline, or a combination of pyrrolidinedithiocarbamate or vitamin E and 5-FU or 6 weeks. In cross-over experiments, animals received the above treatments for three weeks (with the exception of vitamin E), and then were crossed-over to either the combination treatment of pyrrolidinedithiocarbamate and 5-FU (saline, pyrrolidinedithiocarbamate or 5-FU alone) or discontinued treatment pyrrolidinedithiocarbamate and 5-FU) for the remaining three weeks of the experiment. […] Tumor volumes were recorded weekly until termination of the study.
# Tumor tissues were fixed overnight in 4% (v/v) paraformaldehyde and embedded in paraffin according to standard histological procedures. […] TdT labeling of fragmented DNA (TUNEL) was performed as described. The proliferative index (BrDU) and the apoptotic index (TUNEL) were estimated by the percentage of cells scored under a microscope at 200-fold magnification.
# HCT 15-derived tumors = test: HCT 15 tumor xenografts in athymic mice; format: in vivo
# Procedure: HCT 15-derived tumors were generated as described above. Animals were then treated with pyrrolidinedithiocarbamate, in the presence or absence of 5-FU, for 3 weeks. At this point, treatments were discontinued in animals receiving the combined treatment of pyrrolidinedithiocarbamate and 5-FU for 2 months. All other treatment groups received both 5-FU and pyrrolidinedithiocarbamate for the remaining 3 weeks.
# as §5, §6
# Tumor tissues were fixed overnight in 4% (v/v) paraformaldehyde and embedded in paraffin according to standard histological procedures. […] The proliferative index (BrDU) and the apoptotic index (TUNEL) were estimated by the percentage of cells scored under a microscope at 200-fold magnification.
# HCT 15 cells [2] = test: Apoptotic index (TUNEL) with or without induced C/EBPβ overexpression; format: cell-based, human; conditions: 5-FU 1.5 μM or doxorubicin 0.1 μM, 24 hours
# Procedure: Control HCT 15 cells and the sense C/EBPβ cell line were induced with 10 μM muristerone A and exposed to either 5-FU (1.5 μM) or doxorubicin (0.1 μM) for 24 hours. The apoptotic index was calculated as described in FIG. 4C.
# Finally, the functional role of C/EBPβ was examined in the apoptotic signaling pathway by generating lines of HCT 15 cells that were stably transfected with the human C/EBPβ cDNA, in both the sense and antisense orientation, under the control of an ecdysone inducible promoter. To avoid the possibility that constitutively expressed C/EBPβ might induce cell death, and ecdysone (muristerone A)-inducible expression system (Invitrogen, Carlsbad, Calif.) was used. Human C/EBPβ cDNA was subcloned into pIND at convenient enzyme cleavage ites. Constructs, containing sense and antisense C/EBPβ sequences were verified by double-stranded DNA sequencing. Before transfection, pIND-C/EBPβ constructs were linearized with Pme I and purified. HCT 15 cells were transfected with 5 μg of pVgRXR (Invitrogen) and 10 μg of pIND-C/EBPβ using CELLFECTIN according to manufacture's instructions. After 24 hours, cells were shifted to medium supplemented with 1 mg/ml Geneticin and […] puromycin (GIBCO BRL) to select for transfectant clones. After 2 weeks, antibiotic-resistant cells were subcloned by limiting dilution. The expression of C/EBPβ protein and the subsequent induction of p21^WAF1/CIP1 was determined following induction with 10 μM muristerone A for 24 hours and Western blot analysis.
# [3] = tested on: advanced, frequently mutant p53-containing colorectal cancer tumors; conditions: patients with advanced; cited from earlier work
# HCT 116 cells = test: Soft-agar colony formation (anchorage-independent growth)
# Procedure: (§1) FIG. 1A is a graph of the concentration of PDTC versus soft-agar forming units×10^6 HCT 15 and HCT 116 cells (as a percent of control). […] Soft-agar colony formation was measured by seeding HCT 116 or HCT 15 cells in soft agar supplemented with either medium alone (control), or increasing concentrations of pyrrolidinedithiocarbamate (25–200 μM) or vitamin E (0.1–10 mM). Colonies were scored at the end of 10 days incubation at 37° C. Values are representative of three experiments carried out in quadruplicate.
# (§2) HCT 116 and HCT 15 cells were seeded in soft agar as described above containing increasing concentrations of either 5-FU (5×10^−8 to 5×10^−5 M) or doxorubicin (1×10^−9 to 1×10^−6 M), in the presence or absence of pyrrolidinedithiocarbamate (70 μM) or vitamin E (3 mM). Colonies were scored after 10 days and IC50 values were calculated as the concentration of 5-FU or doxorubicin required to reduce basal colony formation by 50% (±s.e.m.). Values are representative of three experiments carried out in quadruplicate.
# HCT 15 cells [4] = test: as above
# Procedure: as §1, §2
# CRC cell = CRC cell plating efficiency; format: cell-based, human; conditions: 25–200 μM (pyrrolidinedithiocarbamate) and 0.1–10 mM (vitamin E), preliminary studies
# HCT 116 CRC cells = test: Flow cytometric cell cycle analysis (propidium iodide); format: cell-based, human; conditions: HCT 116, pyrrolidinedithiocarbamate 70 μM or vitamin E 3 mM, 24 hours
# Procedure: (§3) FIG. 1B is a series of flow cytometric analyses that indicate that antioxidants induce G1 cell cycle arrest and apoptosis in CRC cells. […] Twenty-four hours following antioxidant exposure, cells were harvested and flow cytometric analysis performed.
# (§4) DNA Content of nuclei was determined as described [I. G. Nicoletti et al., J Immunol. Methods. 139, 271 (1991)] by lysing plasma membranes, staining nuclear DNA with propidium iodide ([…]), and quantitating the relative DNA content of nuclei using the Becton Dickinson FACSORT fluorescence-activated cell sorter. The proportion of nuclei in each phase of the cell cycle was determined using MODFIT-DNA analysis software. Detection of apoptotic cells either by fluorescence microscopy or by flow cytometry was performed using the ApopTag Plus In Situ Apoptosis Detection Kit (Oncor, Gaithersburg, Md.) as described in the manufacturer's protocol. Briefly, gigoxygenin-labeled nucleotides were added to free 3′OH groups of DNA produced by DNA fragmentation during apoptosis by terminal deoxynucleotidyl transferase (TdT). Digoxygenin was detected by a FTC-conjugated anti-digoxygenin antibody. Analysis was carried out using the fluorescence-activated cell sorter and FITC staining visualized using a fluorescence microscope (Zeiss). […]
# HCT 15 CRC cells = test: as above; format: cell-based, human; conditions: HCT 15, pyrrolidinedithiocarbamate 70 μM or vitamin E 3 mM, 24 hours
# Procedure: as §3, §4
# endogenous H2O2 = test: Intracellular H2O2 levels by flow cytometry with dihydrorhodamine; format: cell-based, human; conditions: up to 24 hours
# Procedure: FIG. 1C is a bar graph of the hours after test compound treatment versus intracellular H2O2 levels. FIG. 1C illustrates the negative association between intracellular redox status and cell cycle perturbations. Changes in the intracellular redox status were determined by the measurement of endogenous H2O2 levels. Background fluorescence was subtracted from each reading. Values are expressed as corrected DHR mean per 10^4 cells±s.e.m. The percentage of G1 (circle) or apoptotic (TUNEL-positive: square) cells by flow cytometric analysis.
# HCT 15 cells were incubated with pyrrolidinedithiocarbamate (70 μM), vitamin E (3 mM), N-acetylcysteine (50 μM) or vitamin C (200 μM) for 24 hours. Endogenous H2O2 levels and cell cycle changes were measured as described in FIG. 1C. […] Values from cells transfected with the empty plasmid were subtracted from those obtained from the catalase-containing cells and were expressed as mean±s.e.m. from duplicate dishes.
# Intracellular H2O2 levels were analyzed by flow cytometry using […] (DHR) as a specific fluorescent dye probe [G. Rothe, A. Emmendorffer, A. Oser, J. Roesler, G. Valet, J Immun. […] Cellular rhodamine 123 fluorescence intensity of 1×10^4 cells was measured for each sample using a Becton-Dickenson FACS Vantage flow cytometer with the excitation source at 488 nm and emission wave length of 580 nm. […]
# rats = conditions: intravenously; cited from earlier work
# PP2A = test: Dephosphorylation of radiolabeled C/EBPβ in DKO-1 lysates; format: biochemical, human; conditions: DKO-1 cell lysates (cells treated with 17 μM PDTC for three hours), ten minutes at 37 degrees C
# Procedure: FIG. 13 is a graph of time in hours versus percent radioactivity remaining on the protein substrate. […] The activity of PDTC is compared to I2 (a selective PP1 inhibitor), okadaic acid (an inhibitor of both PP2A and PP1), I2 and PDTC, and okadaic acid and PDTC. DKO-1 cells were grown in the presence of PDTC (test) or not (control). The cells were lysed, and then radioactive phosphorylated C/EBPβ was added. The test compounds were then added, and incubated with the lysate. The protein was collected and the amount of radioactive phosphate remaining in the protein measured.
# Cell lysates were prepared and treated with the following reagents in the presence of phosphorylated C/EBPβ in which the phosphate is radiolabeled, for ten minutes at 37 degrees C: I2 (a selective PP1 inhibitor), okadaic acid (a selective inhibitor of PP2A and PP1), PDTC, I2 and PDTC, and okadaic acid and PDTC. […] This effect is reversible following removal of the antioxidant.
# [5] = HCT 116 xenografts, weekly i.p. injections
# [6] = HCT 15 cells induced to overexpress C/EBPβ
# [7] = HCT 15 cells, absence of C/EBPβ overexpression
molecule,measurement,setting,value
"O=c1[nH]cc(F)c(=O)[nH]1 [5-FU, 5-fluorouracil]",tumor volume compared to saline-treated controls,[1]; [5],significantly reduced tumor volume
same,tumor size,"HCT 15-derived tumors; HCT 15-derived tumors, after 3 weeks of single agent treatment, before cross-over",1864+190 mm^3
same,apoptotic index,HCT 15 cells [2]; [6],70%
same,apoptotic index,HCT 15 cells [2]; [7],20%
same,success rate,[3],15–20%
"Cc1c(C)c2c(c(C)c1O)CCC(C)(C(=O)O)O2 (stereo not shown) [6-hydroxy-2.5,7,8-tetramethylchroman-2-carboxylic acid]",effect on the IC50 of 5-FU and doxorubicin,HCT 116 cells,decreased the IC50 for both 5-FU and doxorubicin
same,anchorage-independent growth,"HCT 116 cells; HCT 116 cells, increasing amounts (25–200 μM pyrrolidinedithiocarbamate, 0.1–10 mM vitamin E)",dose-dependent reduction in anchorage-independent growth
same,IC50,"HCT 116 cells; read-out: approximate IC50 in soft agar, HCT 116 cells, soft agar, 10 days",~3 mM
same,effect on the IC50 of 5-FU and doxorubicin,HCT 15 cells [4],decreased the IC50 for both 5-FU and doxorubicin
same,anchorage-independent growth,"HCT 15 cells [4]; HCT 15 cells, increasing amounts (25–200 μM pyrrolidinedithiocarbamate, 0.1–10 mM vitamin E)",dose-dependent reduction in anchorage-independent growth
same,IC50,"HCT 15 cells [4]; read-out: approximate IC50 in soft agar, HCT 15 cells, soft agar, 10 days",~3 mM
same,CRC cell plating efficiency,CRC cell,no significant effect on CRC cell plating efficiency
same,accumulation of cells in the G1 peak,HCT 116 CRC cells,induced a significant accumulation of cells in the G1 peak
same,accumulation of cells in the G1 peak,HCT 15 CRC cells,induced a significant accumulation of cells in the G1 peak
same,endogenous H2O2 levels,"endogenous H2O2; HCT 15 cells, N-acetylcysteine 50 μM, vitamin C 200 μM",significantly reduced endogenous H2O2 levels
same,endogenous H2O2 levels,endogenous H2O2; HCT 116 cells,significantly reduced endogenous H2O2 levels
same,increase of apoptotic index (TUNEL) of residual tumors,[1]; HCT 116 xenograft model,approximately 5 fold
same,effect of adding the antioxidant to 5-FU on tumor volume,"[1]; HCT 116 xenografts, weekly i.p. injections, combined with 5-FU (40 mg/kg)",significantly enhanced the effect of 5-FU
same,tumor volume compared to saline-treated controls,[1]; [5],significantly reduced tumor volume
same,increase of apoptotic index (TUNEL) of residual tumors,HCT 15-derived tumors; HCT 15 xenograft model,approximately 5 fold
"CC(=O)N[C@@H](CS)C(=O)O [N-acetylcysteine, acetamido-mercaptopropionic acid]",LD50,rats,1140 mg/kg
COc1cccc2c1C(=O)c1c(O)c3c(c(O)c1C2=O)C[C@@](O)(C(=O)CO)C[C@@H]3O[C@H]1C[C@H](N)[C@H](O)[C@H](C)O1 [doxorubicin],apoptotic index,HCT 15 cells [2]; [6],80%
same,apoptotic index,HCT 15 cells [2]; [7],did not induce apoptosis
"C=C1[C@@H](O)[C@@H]2O[C@]3(CC[C@H](/C=C/[C@@H](C)[C@@H]4CC(C)=C[C@@]5(O[C@H](C[C@@](C)(O)C(=O)O)CC[C@H]5O)O4)O3)CC[C@H]2O[C@@H]1[C@@H](O)C[C@H](C)[C@H]1O[C@@]2(CCCCO2)CC[C@H]1C [okadaic acid, reference compound]",phosphatase activity toward phosphorylated C/EBPβ,PP2A,inhibited all DKO-1 phosphatase activity
B1,phosphatase activity toward phosphorylated C/EBPβ,PP2A,failed to protect C/EBPβ from dephosphorylation
